Data as given in PubChem BioAssay (NCI).
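96-well plates; 48 h exposure; 5 concentrations. Endpoints by linear interpolation between flanking doses. Not reached: highest tested concentration assigned. Here, GI50 denotes the concentration required for 50% inhibition of growth. TGI is the concentration that stops growth completely.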

How the values were obtained:
Assay in all cases: NCI anticancer screen, dose series, 48 h
BT-549 breast = system: BT-549 breast
NCI-H226 lung = system: NCI-H226 lung
SW-620 colon = system: SW-620 colon
NCI-H522 lung = system: NCI-H522 lung
OVCAR-3 ovarian = system: OVCAR-3 ovarian
MCF7 breast = system: MCF7 breast
UACC-257 melanoma = system: UACC-257 melanoma
SNB-75 CNS = system: SNB-75 CNS
HOP-62 NSCLC = system: HOP-62 NSCLC
OVCAR-5 ovarian = system: OVCAR-5 ovarian
RPMI-8226 leukemia = system: RPMI-8226 leukemia
IGROV1 ovarian = system: IGROV1 ovarian
SF-295 CNS = system: SF-295 CNS
U251 CNS = system: U251 CNS
COLO 205 colon = system: COLO 205 colon
KM12 colon = system: KM12 colon
MDA-MB-435 = system: MDA-MB-435
HS 578T breast = system: HS 578T breast
HL-60(TB) leukemia = system: HL-60(TB) leukemia
SK-MEL-2 melanoma = system: SK-MEL-2 melanoma
SF-268 CNS = system: SF-268 CNS
OVCAR-4 ovarian = system: OVCAR-4 ovarian
OVCAR-8 ovarian = system: OVCAR-8 ovarian
MOLT-4 leukemia = system: MOLT-4 leukemia
T-47D breast = system: T-47D breast
A498 renal = system: A498 renal
UACC-62 melanoma = system: UACC-62 melanoma
CCRF-CEM leukemia = system: CCRF-CEM leukemia
NCI/ADR-RES ovarian = system: NCI/ADR-RES ovarian
A549 NSCLC = system: A549 NSCLC
SN12C renal = system: SN12C renal
M14 melanoma = system: M14 melanoma
HCT-15 colon = system: HCT-15 colon
SK-OV-3 ovarian = system: SK-OV-3 ovarian
HCT-116 colon = system: HCT-116 colon
UO-31 renal = system: UO-31 renal
SK-MEL-5 melanoma = system: SK-MEL-5 melanoma
HCC-2998 colon = system: HCC-2998 colon
MDA-MB-231 breast = system: MDA-MB-231 breast
PC-3 prostate = system: PC-3 prostate
SF-539 CNS = system: SF-539 CNS
NCI-H23 lung = system: NCI-H23 lung
SK-MEL-28 melanoma = system: SK-MEL-28 melanoma
ACHN renal = system: ACHN renal
SNB-19 CNS = system: SNB-19 CNS
TK-10 renal = system: TK-10 renal
LOX IMVI melanoma = system: LOX IMVI melanoma
CAKI-1 renal = system: CAKI-1 renal
HT29 colon = system: HT29 colon
786-0 renal = system: 786-0 renal
K-562 leukemia = system: K-562 leukemia
DU-145 prostate = system: DU-145 prostate
NCI-H460 lung = system: NCI-H460 lung
HOP-92 NSCLC = system: HOP-92 NSCLC
MALME-3M melanoma = system: MALME-3M melanoma
RXF 393 renal = system: RXF 393 renal

## Cc1ccc2[nH]cc(-c3nc(-c4c[nH]c5ncccc45)cs3)c2c1
BT-549 breast
  GI50: > 100 µM
  TGI: > 100 µM
NCI-H226 lung
  GI50: > 100 µM
  TGI: > 100 µM
SW-620 colon
  GI50: > 100 µM
  TGI: > 100 µM
NCI-H522 lung
  GI50: > 100 µM
  TGI: > 100 µM
OVCAR-3 ovarian
  GI50: > 100 µM
  TGI: > 100 µM
MCF7 breast
  GI50: > 100 µM
  TGI: > 100 µM
UACC-257 melanoma
  GI50: > 100 µM
  TGI: > 100 µM
SNB-75 CNS
  GI50: > 100 µM
  TGI: > 100 µM
HOP-62 NSCLC
  GI50: > 100 µM
  TGI: > 100 µM
OVCAR-5 ovarian
  GI50: > 100 µM
  TGI: > 100 µM
RPMI-8226 leukemia
  GI50: > 100 µM
  TGI: > 100 µM
IGROV1 ovarian
  GI50: > 100 µM
  TGI: > 100 µM
SF-295 CNS
  GI50: > 100 µM
  TGI: > 100 µM
U251 CNS
  GI50: > 100 µM
  TGI: > 100 µM
COLO 205 colon
  GI50: 0.349 µM
  TGI: > 100 µM
KM12 colon
  GI50: > 100 µM
  TGI: > 100 µM
MDA-MB-435
  GI50: > 100 µM
  TGI: > 100 µM
HS 578T breast
  GI50: > 100 µM
  TGI: > 100 µM
HL-60(TB) leukemia
  GI50: > 100 µM
  TGI: > 100 µM
SK-MEL-2 melanoma
  GI50: > 100 µM
  TGI: > 100 µM
SF-268 CNS
  GI50: > 100 µM
  TGI: > 100 µM
OVCAR-4 ovarian
  GI50: > 100 µM
  TGI: > 100 µM
OVCAR-8 ovarian
  GI50: > 100 µM
  TGI: > 100 µM
MOLT-4 leukemia
  GI50: > 100 µM
  TGI: > 100 µM
T-47D breast
  GI50: > 100 µM
  TGI: > 100 µM
A498 renal
  GI50: 3.11 µM
  TGI: > 100 µM
UACC-62 melanoma
  GI50: > 100 µM
  TGI: > 100 µM
CCRF-CEM leukemia
  GI50: > 100 µM
  TGI: > 100 µM
NCI/ADR-RES ovarian
  GI50: > 100 µM
  TGI: > 100 µM
A549 NSCLC
  GI50: > 100 µM
  TGI: > 100 µM
SN12C renal
  GI50: > 100 µM
  TGI: > 100 µM
M14 melanoma
  GI50: > 100 µM
  TGI: > 100 µM
HCT-15 colon
  GI50: > 100 µM
  TGI: > 100 µM
SK-OV-3 ovarian
  GI50: > 100 µM
  TGI: > 100 µM
HCT-116 colon
  GI50: > 100 µM
  TGI: > 100 µM
UO-31 renal
  GI50: 0.244 µM
  TGI: > 100 µM
SK-MEL-5 melanoma
  GI50: > 100 µM
  TGI: > 100 µM
HCC-2998 colon
  GI50: > 100 µM
  TGI: > 100 µM
MDA-MB-231 breast
  GI50: > 100 µM
  TGI: > 100 µM
PC-3 prostate
  GI50: > 100 µM
  TGI: > 100 µM
SF-539 CNS
  GI50: > 100 µM
  TGI: > 100 µM
NCI-H23 lung
  GI50: > 100 µM
  TGI: > 100 µM
SK-MEL-28 melanoma
  GI50: > 100 µM
  TGI: > 100 µM
ACHN renal
  GI50: > 100 µM
  TGI: > 100 µM
SNB-19 CNS
  GI50: > 100 µM
  TGI: > 100 µM
TK-10 renal
  GI50: > 100 µM
  TGI: > 100 µM
LOX IMVI melanoma
  GI50: > 100 µM
  TGI: > 100 µM

## COc1ccc(Cl)cc1Nc1nc(C(F)(F)F)ccc1C(=O)N/N=C/c1c(Cl)cccc1Cl
BT-549 breast
  GI50: 1.2 µM
  TGI: 6.84 µM
NCI-H226 lung
  GI50: 5.54 µM
  TGI: > 100 µM
NCI-H522 lung
  GI50: 13.3 µM
  TGI: > 100 µM
OVCAR-3 ovarian
  GI50: 1.59 µM
  TGI: 4.32 µM
CAKI-1 renal
  GI50: 9.74 µM
  TGI: > 100 µM
UACC-257 melanoma
  GI50: > 100 µM
  TGI: > 100 µM
SNB-75 CNS
  GI50: 11.9 µM
  TGI: 42.3 µM
HT29 colon
  GI50: > 100 µM
  TGI: > 100 µM
HOP-62 NSCLC
  GI50: 1.35 µM
  TGI: > 100 µM
OVCAR-5 ovarian
  GI50: > 100 µM
  TGI: > 100 µM
SF-295 CNS
  GI50: 3.34 µM
  TGI: 72.6 µM
U251 CNS
  GI50: 4.97 µM
  TGI: > 100 µM
786-0 renal
  GI50: 8.49 µM
  TGI: > 100 µM
MDA-MB-435
  GI50: > 100 µM
  TGI: > 100 µM
HS 578T breast
  GI50: 20.2 µM
  TGI: > 100 µM
HL-60(TB) leukemia
  GI50: 4.87 µM
  TGI: 41.6 µM
SK-MEL-2 melanoma
  GI50: 5.62 µM
  TGI: > 100 µM
K-562 leukemia
  GI50: 3.34 µM
  TGI: 32.5 µM
SF-268 CNS
  GI50: 5.28 µM
  TGI: > 100 µM
OVCAR-4 ovarian
  GI50: 5.16 µM
  TGI: > 100 µM
DU-145 prostate
  GI50: 5.91 µM
  TGI: > 100 µM
MOLT-4 leukemia
  GI50: 2.36 µM
  TGI: 10.7 µM
T-47D breast
  GI50: 4.41 µM
  TGI: > 100 µM
A498 renal
  GI50: 12.3 µM
  TGI: > 100 µM
UACC-62 melanoma
  GI50: 7.16 µM
  TGI: > 100 µM
NCI-H460 lung
  GI50: 4.52 µM
  TGI: > 100 µM
CCRF-CEM leukemia
  GI50: 1.04 µM
  TGI: 6.17 µM
HOP-92 NSCLC
  GI50: 3.46 µM
  TGI: 38.4 µM
A549 NSCLC
  GI50: > 100 µM
  TGI: > 100 µM
SN12C renal
  GI50: 8.78 µM
  TGI: > 100 µM
HCT-15 colon
  GI50: 3.26 µM
  TGI: > 100 µM
SK-OV-3 ovarian
  GI50: 7.67 µM
  TGI: > 100 µM
HCT-116 colon
  GI50: 3.3 µM
  TGI: > 100 µM
MALME-3M melanoma
  GI50: 3.46 µM
  TGI: 54.7 µM
HCC-2998 colon
  GI50: 5.37 µM
  TGI: > 100 µM
MDA-MB-231 breast
  GI50: 14.5 µM
  TGI: > 100 µM
SF-539 CNS
  GI50: 17.9 µM
  TGI: > 100 µM
NCI-H23 lung
  GI50: 38.5 µM
  TGI: > 100 µM
SK-MEL-28 melanoma
  GI50: > 100 µM
  TGI: > 100 µM
ACHN renal
  GI50: 8.01 µM
  TGI: > 100 µM
RXF 393 renal
  GI50: 17.9 µM
  TGI: 58.8 µM
SNB-19 CNS
  GI50: 11.4 µM
  TGI: > 100 µM
TK-10 renal
  GI50: 6.32 µM
  TGI: 50.8 µM
LOX IMVI melanoma
  GI50: 5.14 µM
  TGI: > 100 µM
